Assays:
blackgrass [1] = experiment: Test B pre/postemergence blackgrass; assay type: in vivo, Alopecurus myosuroides
Summary of the method: (§1)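 Response is a visual 0-to-10 score relative to untreated plants, where 0 means no effect and 10 means complete control, taken twelve to sixteen days after application. Treatments went onto soil at planting and onto foliage of 1- to 4-leaf plants, using a surfactant-containing non-phytotoxic solvent.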

giant foxtail = experiment: Test B pre/postemergence giant foxtail; assay type: in vivo, Setaria faberii
Summary of the method: as §1

wheat = experiment: Test B pre/postemergence wheat; assay type: in vivo, Triticum aestivum
Summary of the method: as §1

purple nutsedge = experiment: Test B pre/postemergence purple nutsedge; assay type: in vivo, Cyperus rotundus
Summary of the method: as §1

winter wheat [2] = experiment: Test E winter wheat; assay type: in vivo, Triticum aestivum; settings: Postemergence
Summary of the method: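 Each compound, carried in a non-phytotoxic solvent blend including surfactant, was applied (postemergence: over the top of young plants at 1- to 4-leaf stage). Plants stayed in the greenhouse about 21 to 28 days before visual comparison with untreated controls.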

blackgrass [3] = experiment: Test E blackgrass; assay type: in vivo, Alopecurus myosuroides; settings: Preemergence
green foxtail = experiment: Test E green foxtail; assay type: in vivo, Setaria viridis; settings: Preemergence
Italian ryegrass = experiment: Test E Italian ryegrass; assay type: in vivo, Lolium multiflorum; settings: Preemergence
winter wheat [4] = experiment: Test E winter wheat; assay type: in vivo, Triticum aestivum; settings: Preemergence
wild oat = experiment: Test E wild oat; assay type: in vivo, Avena fatua; settings: Preemergence, 0 to 100 scale where 0 is no effect and 100 is complete control
winter barley = experiment: Test E winter barley; assay type: in vivo, Hordeum vulgare; settings: Preemergence
[5] = Postemergence, Rate 62 g/ha, scale 0 to 10, 0 is no effect, 10 is complete control
[6] = Postemergence, Rate 250 g/ha, scale 0 to 10, 0 no effect, 10 complete control
[7] = Preemergence, Rate 62 g/ha, scale 0 to 10, 0 is no effect, 10 is complete control
[8] = Preemergence, Rate 125 g/ha, scale 0 to 10 (0 no effect, 10 complete control)
[9] = Preemergence, Rate 250 g/ha, scale of 0 to 10 where 0 is no effect and 10 is complete control
[10] = Preemergence, Rate 500 g/ha, scale 0 (no effect) to 10 (complete control)
[11] = Rate 125 g/ha, Postemergence, scale 0 to 10, 0 no effect, 10 complete control
[12] = Rate 500 g/ha, Postemergence, 0 to 10 scale (0 no effect, 10 complete control)
[13] = Rate 500 g/ha, 0 to 100 scale where 0 is no effect and 100 is complete control
[14] = Rate 1000 g/ha, 0 to 100 scale where 0 is no effect and 100 is complete control

Cc1ccc(N(C(=O)n2oc(=O)n(-c3ccccc3C)c2=O)C(C)C)cc1 [Compound 40]
Blackgrass plant response rating (blackgrass [1]; [5]): 0 | Blackgrass plant response rating (blackgrass [1]; [6]): 4 | Plant response rating, Blackgrass (blackgrass [1]; [7]): 0 | Plant response rating, Blackgrass (blackgrass [1]; [8]): 0 | Plant response rating, Blackgrass (blackgrass [1]; [9]): 1 | Blackgrass plant response rating (blackgrass [1]; [10]): 6 | Blackgrass plant response rating (blackgrass [1]; [11]): 0 | Blackgrass plant response rating (blackgrass [1]; [12]): 7 | Giant foxtail plant response rating (giant foxtail; [5]): 0 | Giant foxtail plant response rating (giant foxtail; [6]): 1 | Plant response rating, Giant foxtail (giant foxtail; [7]): 9 | Plant response rating, Giant foxtail (giant foxtail; [8]): 9 | Plant response rating, Giant foxtail (giant foxtail; [9]): 10 | Giant foxtail plant response rating (giant foxtail; [10]): 10 | Giant foxtail plant response rating (giant foxtail; [11]): 0 | Giant foxtail plant response rating (giant foxtail; [12]): 3 | Wheat plant response rating (wheat; [5]): 0 | Wheat plant response rating (wheat; [6]): 0 | Plant response rating, Wheat (wheat; [7]): 0 | Plant response rating, Wheat (wheat; [8]): 0 | Plant response rating, Wheat (wheat; [9]): 0 | Wheat plant response rating (wheat; [10]): 0 | Wheat plant response rating (wheat; [11]): 0 | Nutsedge plant response rating (purple nutsedge; [5]): 0 | Nutsedge plant response rating (purple nutsedge; [6]): 0 | Plant response rating, Nutsedge (purple nutsedge; [7]): 0 | Plant response rating, Nutsedge (purple nutsedge; [8]): 0 | Plant response rating, Nutsedge (purple nutsedge; [9]): 0 | Nutsedge plant response rating (purple nutsedge; [10]): 0 | Nutsedge plant response rating (purple nutsedge; [11]): 0 | Nutsedge plant response rating (purple nutsedge; [12]): 0 | Plant response rating, Wheat (winter) (winter wheat [2]; Rate 250 g/ha, 0 to 100 scale (0 no effect, 100 complete control)): 0 | Plant response rating, Wheat (winter) (winter wheat [2]; Rate 1000 g/ha, 0 to 100 scale, 0 is no effect and 100 is complete control): 0 | Plant response rating, Wheat (winter) (winter wheat [2]; Rate 500 g/ha, 0 to 100 scale, 0 no effect, 100 complete control): 0 | Plant response rating, Blackgrass (blackgrass [3]; Rate 250 g/ha, 0 to 100 scale): 40 | Plant response rating, Blackgrass (blackgrass [3]; [13]): 60 | Plant response rating, Blackgrass (blackgrass [3]; [14]): 70 | Plant response rating, Green foxtail (green foxtail; Rate 250 g/ha, 0 to 100 scale): 70 | Plant response rating, Green foxtail (green foxtail; [13]): 90 | Plant response rating, Green foxtail (green foxtail; [14]): 90 | Plant response rating, I. Ryegrass (Italian ryegrass; Rate 250 g/ha, 0 to 100 scale): 30 | Plant response rating, I. Ryegrass (Italian ryegrass; [13]): 70 | Plant response rating, I. Ryegrass (Italian ryegrass; [14]): 70 | Plant response rating, Wheat (winter) (winter wheat [4]; Rate 250 g/ha, 0 to 100 scale): 20 | Plant response rating, Wheat (winter) (winter wheat [4]; [13]): 30 | Plant response rating, Wheat (winter) (winter wheat [4]; [14]): 40 | Plant response rating, Wild oat (wild oat; Rate 500 g/ha): 50 | Plant response rating, Wild oat (wild oat; Rate 1000 g/ha): 60 | Plant response rating, Barley (winter) (winter barley; Rate 250 g/ha, 0 to 100 scale): 30 | Plant response rating, Barley (winter) (winter barley; [13]): 40 | Plant response rating, Barley (winter) (winter barley; [14]): 50
